Assay results: PMC7815742 (Nature Communications, 2021)

Experiments:
(UniProt A0A3A0FWV3) = biological target: T1, (UniProt A0A3A0FWV3); assay: in vitro [3H]-progesterone reduction assay with purified enzyme, HPLC radiodetection; format: biochemical, Pseudomonadota bacterium
T1 construct: GenBank RIL07334.1, purified wild type

[1] = biological target: the molecule itself; assay: AUC; sedimentation velocity, 20 °C, 25 mM HEPES pH 7.5, 150 mM NaCl, 5% glycerol, 0.02% DDM, 5 mM DTT; masses calculated with SEDFIT and GUSSI

T1 sequence (A0A3A0FWV3 1-253 limits assumed): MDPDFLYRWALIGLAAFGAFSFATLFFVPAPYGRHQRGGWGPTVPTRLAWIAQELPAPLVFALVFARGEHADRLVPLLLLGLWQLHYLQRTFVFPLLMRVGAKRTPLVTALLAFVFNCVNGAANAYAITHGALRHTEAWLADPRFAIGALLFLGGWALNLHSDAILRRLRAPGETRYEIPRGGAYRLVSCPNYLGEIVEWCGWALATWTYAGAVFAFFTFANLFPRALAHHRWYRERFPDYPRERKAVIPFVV

Row | Molecule | IC50 ((UniProt A0A3A0FWV3)) | stoichiometry N [1]
1 | C[C@]12C=CC(=O)N[C@@H]1CC[C@@H]1[C@@H]2CC[C@]2(C)[C@@H](C(=O)Nc3cc(C(F)(F)F)ccc3C(F)(F)F)CC[C@@H]12 [Duta, dutasteride] | 1590 ± 190 nM | 
2 | mycobacterial homolog of Insig protein (MvINS) (natural protein, mycobacterial homolog of Insig, MvINS; PDB 4XU4; theoretical protomer mass 23.6 kDa) MRLRISEAVVLFLLGAVAALIGDHSHVVTGTTVYHTDAVPFVWSSPFWFPILVGAATASLAELRLHLPAPRDGVTARQALGGVAAVVGTYVTTALVHAFPVVPVTALVCAAAAITWCVLGDGPGAACGVVIAVIGPAVEIALVQLGVFAYHPDSDGLFGVAPFLAPLYFAFGVVAALLGELAVARRPQLGPPVCDTVSRGPGAG |  | 3
